Source: patent US9109041B2, “Analog compounds of analgesic peptides derived from the venom of crotalus durissus terrificus snakes, their uses, compositions, methods of preparation and purification” (priority 2004, dated 2015)

How the values were obtained:
[1] = tested on: carrageenin-induced hyperalgesia; assay: rat paw pressure test, carrageenin-induced hyperalgesia; format: in vivo
Protocol: The antinociceptive effect of the synthetic peptide was evaluated in the inflammatory hyperalgesia induced by carrageenin. […] Saline, administered by the same route was used as control.
As determined in the PGE2 model, the participation of opioid receptors in the antinociceptive effect of the peptide SEQ ID NO: 2 in the carrageenin-induced hyperalgesia (Table 10) was investigated. Therefore, the animals were treated with CTOP, a specific μ receptor antagonist (20 μg/paw), nor-BNI, a specific κ receptor antagonist (50 μg/paw) or with ICI 174.864, a specific δ receptor antagonist (10 μg/paw), injected by i.pl. route concomitantly to carrageenin. Peptide was administered in the dose of 1 μg/kg, orally, immediately before carrageenin.

[2] = tested on: hyperalgesia induced by chronic constriction of the sciatic nerve; assay: hyperalgesia induced by chronic constriction of the sciatic nerve (rat paw pressure test); format: in vivo; details: for pain threshold, FM 24 h: day 14, 24 h after peptide; for pain threshold, FM 48 h: day 14, 48 h after peptide; for pain threshold, FM 72 h: day 14, 72 h after peptide; for pain threshold, FM 96 h: day 14, 96 h after peptide
Protocol: For the induction of neuropathic pain, surgery was performed in the sciatic nerve, in accordance with the method described by Bennett, G. J and Xie, Y. K. (Pain, 33:87-107, 1988). The animals were anesthetized with halothane. The sciatic nerve was exposed in the middle region of the thigh, moving away the femoral biceps muscle. Close to the trifurcation of the sciatic nerve, 7 mm of distance from the trifurcation, 4 loose ligations were performed (chromed catgut 4-0) around it, distant from each other in approximately 1 mm. The bindings were performed along the nerve, up to 4-5 mm from the initial point. The incision was sutured in layers, using silk suture thread number 4-0.
The test was applied before (BM-basal measurement) and on the 14th day after the surgery, to characterize the development of neuropathic pain.
The results were analyzed by comparing the means of the basal and initial measurements or by comparing the means of the initial and final measurements or, when determined, through the comparison of the means obtained in the different experimental groups.
For this purpose, the animals were treated with CTOP, a specific μ receptor antagonist (20 μg/paw), nor-BNI, a specific κ receptor antagonist (50 μg/paw) or with ICI 174,864, a specific δ receptor antagonist (10 μg/paw). The antagonists were injected, by intraplantar route. The peptide was administered in the dose of 5 μg/kg, orally, immediately before the injection of the opioid antagonists.
The results were analyzed comparing the mean values of the basal and initial measurements, or of the initial and final measurements or, when determined, by comparing the mean values obtained in the different experimental groups (Tables 15 and 16).

Substance: Xaa-Phe-Ser-Pro-Glu-Asn-Cys-Gln-Gly-Glu-Ser-Gln-Pro-Cys [SEQ ID NO: 2]
- pain threshold, FM (g) ± S.E.M ([1]; 1 μg/kg p.o. + CTOP 20 μg/paw i.pl. with carrageenin, after carrageenin): 126 ± 2.92 g
- pain threshold, IM (g) ± S.E.M. ([1]; 1 μg/kg p.o. + CTOP 20 μg/paw i.pl., before carrageenin): 76 ± 1.87 g
- pain threshold, FM (g) ± S.E.M ([1]; 1 μg/kg p.o. + ICI174,864 10 μg/paw i.pl. with carrageenin, after carrageenin): 128 ± 2.00 g
- pain threshold, IM (g) ± S.E.M. ([1]; 1 μg/kg p.o. + ICI174,864 10 μg/paw i.pl., before carrageenin): 77 ± 1.22 g
- pain threshold, FM (g) ± S.E.M ([1]; 1 μg/kg p.o. + nor-BNI 50 μg/paw i.pl. with carrageenin, after carrageenin): 56 ± 1.00 g
- pain threshold, IM (g) ± S.E.M. ([1]; 1 μg/kg p.o. + nor-BNI 50 μg/paw i.pl., before carrageenin): 78 ± 2.00 g
- pain threshold, FM (g) ± S.E.M ([1]; 1 μg/kg p.o., 3 h after carrageenin 200 μg/paw (Table 9)): 116 ± 1.87 g
- pain threshold, FM (g) ± S.E.M ([1]; 1 μg/kg p.o., after carrageenin (Table 10)): 129 ± 1.87 g
- pain threshold, IM (g) ± S.E.M. ([1]; 1 μg/kg p.o., before carrageenin (Table 9)): 77 ± 2.00 g
- pain threshold, IM (g) ± S.E.M. ([1]; 1 μg/kg p.o., before carrageenin (Table 10)): 77 ± 1.22 g
- opioid receptor antagonist interfering with the antinociceptive effect ([1]; peptide 1 μg/kg p.o., mu, kappa, delta antagonists i.pl.): only kappa opioid receptor antagonist was able to interfere
- pain threshold, BM ([2]; 0.0016 μg/kg p.o., before surgery): 72 ± 1.22 g
- pain threshold, FM 1 h ([2]; 0.0016 μg/kg p.o., day 14, 1 h after peptide): 32 ± 1.22 g
- pain threshold, FM 3 h ([2]; 0.0016 μg/kg p.o., day 14, 3 h after peptide): 32 ± 1.22 g
- pain threshold, FM 24 h ([2]; 0.0016 μg/kg p.o.): 33 ± 1.22 g
- pain threshold, FM 48 h ([2]; 0.0016 μg/kg p.o.): 30 ± 0.00 g
- pain threshold, FM 72 h ([2]; 0.0016 μg/kg p.o.): 32 ± 1.22 g
- pain threshold, FM 96 h ([2]; 0.0016 μg/kg p.o.): 32 ± 1.22 g
- pain threshold, IM ([2]; 0.0016 μg/kg p.o., day 14 after surgery, before peptide): 33 ± 1.22 g
- pain threshold, BM ([2]; 0.008 μg/kg p.o., before surgery): 74 ± 1.87 g
- pain threshold, FM 1 h ([2]; 0.008 μg/kg p.o., day 14, 1 h after peptide): 34 ± 1.00 g
- pain threshold, FM 3 h ([2]; 0.008 μg/kg p.o., day 14, 3 h after peptide): 30 ± 1.58 g
- pain threshold, FM 24 h ([2]; 0.008 μg/kg p.o.): 30 ± 0.00 g
- pain threshold, FM 48 h ([2]; 0.008 μg/kg p.o.): 33 ± 1.22 g
- pain threshold, FM 72 h ([2]; 0.008 μg/kg p.o.): 31 ± 1.00 g
- pain threshold, FM 96 h ([2]; 0.008 μg/kg p.o.): 32 ± 1.22 g
- pain threshold, IM ([2]; 0.008 μg/kg p.o., day 14 after surgery, before peptide): 33 ± 1.22 g
- pain threshold, BM ([2]; 0.04 μg/kg p.o., before surgery): 71 ± 1.00 g
- pain threshold, FM 1 h ([2]; 0.04 μg/kg p.o., day 14, 1 h after peptide): 29 ± 1.00 g
- pain threshold, FM 3 h ([2]; 0.04 μg/kg p.o., day 14, 3 h after peptide): 30 ± 0.00 g
- pain threshold, FM 24 h ([2]; 0.04 μg/kg p.o.): 31 ± 1.00 g
- pain threshold, FM 48 h ([2]; 0.04 μg/kg p.o.): 33 ± 1.22 g
- pain threshold, FM 72 h ([2]; 0.04 μg/kg p.o.): 33 ± 0.00 g
- pain threshold, FM 96 h ([2]; 0.04 μg/kg p.o.): 33 ± 1.22 g
- pain threshold, IM ([2]; 0.04 μg/kg p.o., day 14 after surgery, before peptide): 33 ± 1.22 g
- pain threshold, BM ([2]; 0.2 μg/kg p.o., before surgery): 73 ± 1.22 g
- pain threshold, FM 1 h ([2]; 0.2 μg/kg p.o., day 14, 1 h after peptide): 51 ± 1.87 g
- pain threshold, FM 3 h ([2]; 0.2 μg/kg p.o., day 14, 3 h after peptide): 56 ± 1.87 g
- pain threshold, FM 24 h ([2]; 0.2 μg/kg p.o.): 52 ± 1.22 g
- pain threshold, FM 48 h ([2]; 0.2 μg/kg p.o.): 54 ± 1.00 g
- pain threshold, FM 72 h ([2]; 0.2 μg/kg p.o.): 53 ± 1.22 g
- pain threshold, FM 96 h ([2]; 0.2 μg/kg p.o.): 33 ± 1.22 g
- pain threshold, IM ([2]; 0.2 μg/kg p.o., day 14 after surgery, before peptide): 31 ± 1.00 g
- pain threshold, BM ([2]; 1 μg/kg p.o., before surgery): 72 ± 1.22 g
- pain threshold, FM 1 h ([2]; 1 μg/kg p.o., day 14, 1 h after peptide): 73 ± 1.22 g
- pain threshold, FM 3 h ([2]; 1 μg/kg p.o., day 14, 3 h after peptide): 73 ± 1.22 g
- pain threshold, FM 24 h ([2]; 1 μg/kg p.o.): 71 ± 1.00 g
- pain threshold, FM 48 h ([2]; 1 μg/kg p.o.): 74 ± 1.00 g
- pain threshold, FM 72 h ([2]; 1 μg/kg p.o.): 71 ± 1.00 g
- pain threshold, FM 96 h ([2]; 1 μg/kg p.o.): 33 ± 1.22 g
- pain threshold, IM ([2]; 1 μg/kg p.o., day 14 after surgery, before peptide): 31 ± 1.00 g
- pain threshold, FM 1 h ([2]; 5 μg/kg p.o. + CTOP 20 μg/paw i.pl., 1 h after peptide): 105 ± 4.18 g
- pain threshold, MF 3 h ([2]; 5 μg/kg p.o. + CTOP 20 μg/paw i.pl., 3 h after peptide): 112 ± 5.83 g
- pain threshold, BM ([2]; 5 μg/kg p.o. + CTOP 20 μg/paw i.pl., before surgery): 72 ± 1.22 g
- pain threshold, IM ([2]; 5 μg/kg p.o. + CTOP 20 μg/paw i.pl., day 14, before peptide): 41 ± 1.88 g
- pain threshold, FM 1 h ([2]; 5 μg/kg p.o. + ICI 174,864 10 μg/paw i.pl., 1 h after peptide): 35 ± 1.87 g
- pain threshold, MF 3 h ([2]; 5 μg/kg p.o. + ICI 174,864 10 μg/paw i.pl., 3 h after peptide): 37 ± 2.55 g
- pain threshold, BM ([2]; 5 μg/kg p.o. + ICI 174,864 10 μg/paw i.pl., before surgery): 72 ± 1.22 g
- pain threshold, IM ([2]; 5 μg/kg p.o. + ICI 174,864 10 μg/paw i.pl., day 14, before peptide): 34 ± 1.87 g
- pain threshold, FM 1 h ([2]; 5 μg/kg p.o. + nor-BNI 50 μg/paw i.pl., 1 h after peptide): 69 ± 1.87 g
- pain threshold, MF 3 h ([2]; 5 μg/kg p.o. + nor-BNI 50 μg/paw i.pl., 3 h after peptide): 75 ± 1.58 g
- pain threshold, BM ([2]; 5 μg/kg p.o. + nor-BNI 50 μg/paw i.pl., before surgery): 73 ± 1.22 g
- pain threshold, IM ([2]; 5 μg/kg p.o. + nor-BNI 50 μg/paw i.pl., day 14, before peptide): 35 ± 1.58 g
- pain threshold, BM ([2]; 5 μg/kg p.o., before surgery (Table 11)): 72 ± 0.79 g
- pain threshold, BM ([2]; 5 μg/kg p.o., before surgery (Table 15)): 72 ± 1.44 g
- pain threshold, FM 1 h ([2]; 5 μg/kg p.o., day 14, 1 h after peptide (Table 11)): 100 ± 4.42 g
- pain threshold, FM 1 h ([2]; 5 μg/kg p.o., day 14, 1 h after peptide (Table 15)): 114 ± 6.57 g
- pain threshold, FM 3 h ([2]; 5 μg/kg p.o., day 14, 3 h after peptide (Table 11)): 98 ± 4.28 g
- pain threshold, MF 3 h ([2]; 5 μg/kg p.o., day 14, 3 h after peptide (Table 15)): 121 ± 5.91 g
- pain threshold, FM 24 h ([2]; 5 μg/kg p.o.): 99 ± 3.51 g
- pain threshold, FM 48 h ([2]; 5 μg/kg p.o.): 93 ± 3.00 g
- pain threshold, FM 72 h ([2]; 5 μg/kg p.o.): 86 ± 2.45 g
- pain threshold, FM 96 h ([2]; 5 μg/kg p.o.): 33 ± 1.18 g
- pain threshold, IM ([2]; 5 μg/kg p.o., day 14, before peptide (Table 15)): 35 ± 2.04 g
